Results: US4605744A, “Imidazole derivatives” (Hoffmann-La Roche Inc., priority 1985, dated 1986)
Counter-ions that a name gives are not always drawn.

What was measured:
Format in all cases: cell-based
E. coli 257 = assay: In vitro antibacterial activity (MIC, Mueller-Hinton broth); conditions: Escherichia coli, 257, E. coli 257; read-out: MIC
Description: Drug dilutions are prepared in Mueller-Hinton broth ranging from 128 to 0.008 μg/ml. The diluted agents are dispensed in 100 μl amounts into the wells of a 96-well tray and used immediately or frozen at -10° to -70° C. until needed. Using an automated inoculator, 1.5 μl of a 10^-2 dilution of an overnight culture is added to each well of the tray. The tops of the trays are then sealed using transparent tape and incubated overnight at 37° C. The trays are examined with the aid of a viewer. The lowest concentration at which no growth is observed is considered to be the minimum inhibitory concentration (MIC).

C. freundii 8ASM = assay: In vitro antibacterial activity (MIC); conditions: Citrobacter freundii, 8ASM, C. freundii 8ASM; read-out: MIC
Method in brief: (§1)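 Overnight cultures, diluted 10^-2, were added at 1.5 μl per well to twofold drug series (128–0.008 μg/ml) in Mueller-Hinton broth.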

E. aerogenes 503-478 = assay: In vitro antibacterial activity (MIC); conditions: Klebsiella aerogenes, 503478, E. aerogenes 503-478; read-out: MIC
Method in brief: as §1

E. aerogenes 8 = assay: In vitro antibacterial activity (MIC); conditions: Klebsiella aerogenes; E. aerogenes 8; read-out: MIC
Method in brief: as §1

E. cloacae 214 = assay: In vitro antibacterial activity (MIC); conditions: Enterobacter cloacae, 214, E. cloacae 214; read-out: MIC
Method in brief: as §1

E. cloacae 24 = assay: In vitro antibacterial activity (MIC); conditions: Enterobacter cloacae, 24, E. cloacae 24; read-out: MIC
Method in brief: as §1

E. cloacae 5699 = assay: In vitro antibacterial activity (MIC); conditions: Enterobacter cloacae, 5699, E. cloacae 5699; read-out: MIC
Method in brief: as §1

E. cloacae 6951 = assay: In vitro antibacterial activity (MIC); conditions: Enterobacter cloacae, 6951, E. cloacae 6951; read-out: MIC
Method in brief: as §1

E. cloacae 9570A = assay: In vitro antibacterial activity (MIC); conditions: Enterobacter cloacae, read-out: MIC
Method in brief: as §1

E. coli 503-455 = assay: In vitro antibacterial activity (MIC); conditions: Escherichia coli, 503455, E. coli 503-455; read-out: MIC
Method in brief: as §1

K. pneumoniae 8357 = assay: In vitro antibacterial activity (MIC); conditions: Klebsiella pneumoniae, 8357, K. pneumoniae 8357; read-out: MIC
Method in brief: as §1

P. aeruginosa 5700 = assay: In vitro antibacterial activity (MIC); conditions: Pseudomonas aeruginosa, 5700, P. aeruginosa 5700; read-out: MIC
Method in brief: as §1

P. aeruginosa B = assay: In vitro antibacterial activity (MIC); conditions: Pseudomonas aeruginosa, read-out: MIC
Method in brief: as §1

P. aeruginosa POW 151 = assay: In vitro antibacterial activity (MIC); conditions: Pseudomonas aeruginosa, POW151
Method in brief: as §1

P. mirabilis 190 = assay: In vitro antibacterial activity (MIC); conditions: Proteus mirabilis, 190, P. mirabilis 190; read-out: MIC
Method in brief: as §1

P. mirabilis 90 = assay: In vitro antibacterial activity (MIC); conditions: Proteus mirabilis, 90, P. mirabilis 90; read-out: MIC
Method in brief: as §1

S. aureus 1059B = assay: In vitro antibacterial activity (MIC); conditions: Staphylococcus aureus, read-out: MIC
Method in brief: as §1

S. aureus Giorgio = assay: In vitro antibacterial activity (MIC); conditions: Staphylococcus aureus, S. aureus Giorgio; read-out: MIC
Method in brief: as §1

S. faecalis C1 = assay: In vitro antibacterial activity (MIC); conditions: Enterococcus faecalis; S. faecalis C1; read-out: MIC
Method in brief: as §1

S. marcescens S2 = assay: In vitro antibacterial activity (MIC); conditions: Serratia marcescens; S. marcescens S2; read-out: MIC
Method in brief: as §1

S. marcescens S3 = assay: In vitro antibacterial activity (MIC); conditions: Serratia marcescens; S. marcescens S3; read-out: MIC
Method in brief: as §1

S. marcescens S5 = assay: In vitro antibacterial activity (MIC); conditions: Serratia marcescens, S5, S. marcescens S5; read-out: MIC
Method in brief: as §1

S. pneumoniae 6301 = assay: In vitro antibacterial activity (MIC); conditions: Streptococcus pneumoniae, 6301, S. pneumoniae 6301; read-out: MIC
Method in brief: as §1

SMILES	MIC (E. coli 257) [µg/mL]	MIC (C. freundii 8ASM) [µg/mL]	MIC (E. aerogenes 503-478) [µg/mL]	MIC (E. aerogenes 8) [µg/mL]	MIC (E. cloacae 214) [µg/mL]	MIC (E. cloacae 24) [µg/mL]	MIC (E. cloacae 5699) [µg/mL]	MIC (E. cloacae 6951) [µg/mL]	MIC (E. cloacae 9570A) [µg/mL]	MIC (E. coli 503-455) [µg/mL]	MIC (K. pneumoniae 8357) [µg/mL]	MIC (P. aeruginosa 5700) [µg/mL]	MIC (P. aeruginosa B) [µg/mL]	MIC (P. aeruginosa POW 151) [µg/mL]	MIC (P. mirabilis 190) [µg/mL]	MIC (P. mirabilis 90) [µg/mL]	MIC (S. aureus 1059B) [µg/mL]	MIC (S. aureus Giorgio) [µg/mL]	MIC (S. faecalis C1) [µg/mL]	MIC (S. marcescens S2) [µg/mL]	also measured
CC1(C)S[C@@H]2[C@H](N=CN3CCC(C4=NCCN4)CC3)C(=O)N2[C@H]1C(=O)O [L, [2S-(2alpha,5alpha,6beta)]-6-[[[4-(4,5-dihydro-1H-imidazol-2-yl)-1-piperidinyl]methylene]amino]-3,3-dimethyl-7-oxo-4-thia-1-azabicyclo[3.2.0]heptane-2-carboxylic acid hydrochloride]	1	0.25	8	32	1	1	1	8	2	4	2	2	0.5	> 128	0.5	2	64	2	32	0.5	MIC (S. marcescens S3): 0.5 µg/mL; MIC (S. marcescens S5): 4 µg/mL; MIC (S. pneumoniae 6301): 0.5 µg/mL
CC1(C)S[C@@H]2[C@H](N=CN3CCC(CCCn4ccnc4)CC3)C(=O)N2[C@H]1C(=O)O [C, [2S-(2alpha,5alpha,6beta)]-6-[[4-[3-(1H-imidazol-1-yl)propyl]-1-piperidinyl]methylene]amino]-3,3-dimethyl-7-oxo-4-thia-1-azabicyclo[3.2.0]heptane-2-carboxylic acid 1.2 mole hydrochloride monohydrate]	2	4	128	> 128	16	32	16	> 128	16	128	16	16	8	> 128	8	32	> 128	> 128	> 128	16	MIC (S. marcescens S3): 16 µg/mL; MIC (S. marcescens S5): 64 µg/mL; MIC (S. pneumoniae 6301): 128 µg/mL
Cc1nc(C)n(CCCC2CCN(C=N[C@@H]3C(=O)N4[C@@H]3SC(C)(C)[C@@H]4C(=O)O)CC2)c1C [E, [2S-(2alpha,5alpha,6beta)]-6[[4-[3-[(2,4,5-trimethyl-1H-imidazol-1-yl)propyl]-1-piperidinyl]methylene]amino]-3,3-dimethyl-7-oxo-4-thia-1-azabicyclo[3.2.0]heptane-2-carboxylic acid hydrate hydrochloride]	0.062	< 0.008	1	32	0.5	0.5	0.125	8	0.125	2	0.062	> 128	> 128	> 128	0.25	0.5	64	8	128	0.5	MIC (S. marcescens S3): 0.25 µg/mL; MIC (S. marcescens S5): 1 µg/mL; MIC (S. pneumoniae 6301): 1 µg/mL
